From patent US4863932A, “Squalene oxide cyclase inhibitors and therapeutic use thereof” (Somatogenetics International, Inc., priority 1988, dated 1989)
pIC50: −log10 of the molar value. Values after ≈ are worked out from the molar mass of the structure shown.

Columns and labels:
[1] = system: SOC; settings: Duriatti et al. 1985; cited from earlier work
[2] = system: cyclases of higher plants; settings: Duriatti et al. 1985; cited from earlier work
[3] = system: cholesterol synthesis; assay: Inhibition of cholesterol synthesis
[4] = system: fatty acid synthesis; assay: Inhibition of fatty acid synthesis; settings: compared with its inhibition of cholesterol synthesis
[5] = system: sterol synthesis in primary rat hepatocytes; assay: Inhibition of sterol synthesis in primary rat hepatocytes ([3H]-acetate pulse, digitonide precipitation); assay type: cell-based
Procedure: Primary rat hepatocytes (2.2×10^6 cells/60 mm plate) were incubated overnight with various concentrations of inhibitor. The cells are then pulsed for 1 hour with tritiated acetate, harvested by centrifugation and the lipids extracted (Bligh, E. G. and Dyer, W. J. Can. J. Biochem. Physiol. 1959, 37. 911-917). Polar lipid are separated from neutral lipids by silicic acid chromatography. The polar lipids are collected and counted for radioactive acetate incorporation, and used as control for total acetate metabolism. The neutral lipid fraction is saponified and sterols precipitated with digitonide. The digitonide precipitate is counted to measure total incorporation of radioactive acetate into sterols.
lnhibition of sterol synthesis by PCR II-23 was determined as set forth in Example 1.

[6] = system: LDL receptor of HepG2 cells; assay: Effect on the LDL receptor of HepG2 cells (125I-LDL binding, internalization, degradation); assay type: cell-based; settings: for 125I-LDL Binding / 125I-LDL Internal / 125I-LDL Degradation: HepG2 cells; for 125I-LDL Binding: untreated 57 ± 3; for 125I-LDL Internal: untreated 374 ± 9; for 125I-LDL Degradation: untreated 701 ± 38; for LDL BINDING: ± SEM
Procedure: We have compared LA-I-140 and LN-I-83 with the conventional squalene oxide cyclase inhibitors U18666A and TMD by studying their effect on the LDL receptor of HepG2 cells.
The assay is essentially as described by Goldstein, Basu and Brown (Methods in Enzymology, 98: 241-260, 1983). Briefly, confluent cultures of HepG2 cells are incubated for 24 hours in cholesterol-free medium to induce LDL receptors. Test compounds are added to the medium at appropriate concenrations during this incubation. At the end of 24 hours [^125 I]labeled LDL (200-400 cpm/ng) is added to the medium (10-50 ug LDL protein/ml) and the cells are incubated at 37° C. for 3-6 hours.
(a) Degradation of ^125 I-LDL: The culture medium is removed from the monolayer of cells and undegraded LDL is precipitated with 10% (w/v) trichloroacetic acid.
The supernatant fraction is treated with 5% (w/v) silver nitrate to precipitate any free iodine. The radioactivity in the final supernatant fraction, which represents monoiodotyrosine, the proteolytic degradation product of ^125 I-LDL, is measured in a gamma counter.
(b) Specific binding of ^125 I-LDL: The cell monolayers are washed in a cold room (4° C.) three times rapidly with ice-cold buffer B (150 mM NaCl, 50 mM TrisHCl, pH 7.4 and 2 mg/ml bovine serum albumin). Each monolayer is incubated in buffer B for 10 minutes followed by one wash with buffer C (buffer B with bovine serum albumin omitted). Receptor-boundLDL is then released form cell surface by adding buffer D (50 mM NaCl, 10 mM HEPES, pH 7.4, 4 mg/ml dextran sulfate) and incubating at 4° C for 60 minutes on a rotary shaker (60 rotations per minute). An aliquot of buffer D is counted to determine the amount of ^125 I-LDL released from cell surface.
Internalization of ^125 I-LDL: After removal of buffer D, the cell monolayers are dissolved in 0.1 N NaOH by incubation overnight at 37° C. in a humidified incubator. The alkaline digest is briefly homogenized with the aid of a sonicator and aliquots are withdrawn for the determination of internalized radioactivity and for measurement of cell protein. All values are normalized for 1 mg of cell protein. The results are shown n Table 1 below:
In the case of PCR-II-23 and PCR-II-8B, we have examined their binding to the LDL receptors both when administered alone and in the presence of "down" regulators of this receptor (Table 2).

[7] = target: T1, squalene oxide cyclase (Rattus norvegicus, UniProt P48450); assay: biochemical; assay type: biochemical; set-up: Using a rat liver microsomal squalene oxide cyclase assay; from tissue; host or cells: rat liver microsomes / homogenate; settings: for pIC50: 40 uM [3H]-oxidosqualene, pH 7.5, anaerobic, 1 hour, 37° C, read-out: I50 (dosage needed to suppress half the SOC activity); for effectiveness as SOC inhibitor relative to TMD: ratio of I50 values, TMD as reference
T1 sequence (P48450 1-733): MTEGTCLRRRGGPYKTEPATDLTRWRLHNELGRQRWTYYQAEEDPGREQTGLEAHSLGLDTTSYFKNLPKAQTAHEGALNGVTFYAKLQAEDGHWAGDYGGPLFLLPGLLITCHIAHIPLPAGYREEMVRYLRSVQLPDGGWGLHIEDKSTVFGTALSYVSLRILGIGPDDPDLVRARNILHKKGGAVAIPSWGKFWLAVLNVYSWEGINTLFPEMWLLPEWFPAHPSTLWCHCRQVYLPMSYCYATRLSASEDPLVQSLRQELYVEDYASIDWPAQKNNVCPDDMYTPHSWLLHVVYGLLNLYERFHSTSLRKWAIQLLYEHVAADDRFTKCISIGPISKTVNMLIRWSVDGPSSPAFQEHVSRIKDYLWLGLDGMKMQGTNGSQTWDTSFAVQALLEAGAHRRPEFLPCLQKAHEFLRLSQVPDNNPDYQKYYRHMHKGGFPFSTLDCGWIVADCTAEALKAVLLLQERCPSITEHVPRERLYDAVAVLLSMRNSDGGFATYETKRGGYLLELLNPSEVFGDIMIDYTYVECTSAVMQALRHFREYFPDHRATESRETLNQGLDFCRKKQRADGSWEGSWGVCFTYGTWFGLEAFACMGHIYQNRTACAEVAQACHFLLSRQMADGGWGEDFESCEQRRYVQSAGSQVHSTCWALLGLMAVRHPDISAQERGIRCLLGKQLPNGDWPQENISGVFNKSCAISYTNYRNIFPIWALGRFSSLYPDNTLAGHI
Procedure: Using a rat liver microsomal squalene oxide cyclase assay, we have determined the dose at which these drugs and TMD reduce squalene oxide cyclase activity to one-half its normal value. Rat liver microsomes ([…] -rat liver homogenate) were prepared by the method of Popjak, G (Methods in Enzymology, 1969 XV, 393-545). The reaction mixture contained [^3 H]-(S)-[…] (40 uM final), Tween-80 (0.15% w/v final), 0.1 M potassium phosphate, pH 7.5, and inhibitor of varying concentration all in 0.8 ml. The reaction was initiated by the addition of 0.2 ml of the SIO homogenate. The reaction was flushed with N2 and incubated anaerobically for 1 hour at 37° C. The reaction was terminated by addition of 1 ml of 6% potassium hydroxide in methanol (w/v). […] After reduction to […], cold lanosterol was added as carrier, and the extract was applied to a silica TLC plate. After development in methylene chloride, the spot corresponding to lanosterol was scraped off and counted for radioactivity. The I50 for each inhibitor was determined from a plot of radioactive lanosterol formed versus inhibitor concentration.

[8] = system: squalene oxide cyclase; assay: SOC inhibition in in vivo experiments
[9] = target: T1, squalene oxide cyclase
[10] = system: cholesterol biosynthesis in rat liver enzyme preparations; settings: Nelson et al. 1978; cited from earlier work
[11] = system: cholesterol biosynthesis in CHO cells; settings: Nelson et al. 1978; cited from earlier work
[12] = incubation with rat liver homogenate; Nelson et al. 1978; cited from earlier work
[13] = system: lymphocytes; settings: in vivo; cited from earlier work
[14] = inhibitor with suppressor 25-hydroxy-cholesterol (5 ug/ml), HDF 34 ± 3
[15] = inhibitor with suppressor LDL (200 ug/ml), HDF 27 ± 2
[16] = inhibitor with suppressor Mevalonate, HDF 19 ± 2
[17] = suppressor: none, HDF control 88 ± 6

Compound: C[C@@H]1[C@@H](O)CC[C@]2(C)CCCC[C@@H]12 (relative stereo) [4,10 beta-dimethyl analogue]
- type of inhibition of SOC [1]: nonoompetitive inhibitors of SOC
- effect on the cyclases of higher plants [2]: virtually no effect

Compound: CC1(C)[C@@H](O)CC[C@]2(C)[C@@H](CO)CCC[C@@H]12 (relative stereo) [JW I-60, 4,4,10beta-trimethyl-9beta-hydroxymethyl-trans-decal-3beta-ol]
- inhibition of cholesterol synthesis [3]: weak inhibitor of cholesterol synthesis
- inhibition of fatty acid synthesis [4]: much more effective inhibitor of fatty acid synthesis

Compound: CC1(C)NCC[C@]2(C)CCCC[C@@H]12 (relative stereo) [LA-I-140, 4,4,10-trimethyl-trans-3-azadecalin]
- IC50 ([5]; Hepatocyte, primary rat hepatocytes, overnight incubation, read-out: concentration reducing sterol synthesis to one-half of normal levels): 40 µg/mL (≈ 221 µM)
- 125I-LDL Binding ([6]; 20 ug/ml): 75 ± 3 ng/mg cell protein
- 125I-LDL Internal ([6]; 20 ug/ml): 642 ± 96 ng/mg cell protein
- 125I-LDL Degradation ([6]; 20 ug/ml): 408 ± 61 ng/mg cell protein

Compound: CC1(C)[C@@H](O)CC[C@]2(C)CCC(F)(F)C[C@@H]12 (relative stereo) [LN I-83, 4,4,10 beta-Trimethyl-7,7-difluoro-trans-decal-3beta-ol]
- 125I-LDL Binding ([6]; 20 ug/ml): 105 ± 12 ng/mg cell protein
- 125I-LDL Internal ([6]; 20 ug/ml): 687 ± 152 ng/mg cell protein
- 125I-LDL Degradation ([6]; 20 ug/ml): 864 ± 47 ng/mg cell protein
- pIC50 [7]: 3.37

Compound: CC1(C)[C@@H](O)CC[C@]2(C)CCC3(CC3)C[C@@H]12 (relative stereo) [PCR II-8B, (4,4,10beta-trimethyl-trans-decal-3 beta-ol)--7-spiro-1'-cyclopropane]
- sterol biosynthesis by primary rat hepatocytes ([5]; 50 ug/ml): no detectable sterol biosynthesis
- LDL BINDING [6, 14]: 69 ± 4 ng/mg cell protein
- LDL BINDING [6, 15]: 39 ± 4 ng/mg cell protein
- LDL BINDING [6, 16]: 176 ± 17 ng/mg cell protein
- LDL BINDING [6, 17]: 278 ± 3 ng/mg cell protein
- pIC50 [7]: 4.10
- effectiveness as SOC inhibitor relative to TMD [7]: ~5.4 times

Compound: CC1(C)CC[C@@]2(C)CC[C@H](O)C(C)(C)[C@@H]2C1 (relative stereo) [PCR II-23, 4,4,7,7, 10beta-Pentamethvl-trans-decal-3beta-ol]
- LDL BINDING [6, 14]: 117 ± 11 ng/mg cell protein
- LDL BINDING [6, 15]: 36 ± 2 ng/mg cell protein
- LDL BINDING [6, 16]: 196 ± 30 ng/mg cell protein
- LDL BINDING [6, 17]: 281 ± 18 ng/mg cell protein
- pIC50 [7]: 3.80
- effectiveness as SOC inhibitor relative to TMD [7]: about 2.7 times

Compound: CC1(C)[C@@H](O)CC[C@]2(C)CCCC[C@@H]12 (relative stereo) [TMD, 4, 4,10 beta-trimethyl-trans-decal-3beta-ol]
- 125I-LDL Binding ([6]; 20 ug/ml): 130 ± 11 ng/mg cell protein
- 125I-LDL Internal ([6]; 20 ug/ml): 891 ± 202 ng/mg cell protein
- 125I-LDL Degradation ([6]; 20 ug/ml): 990 ± 71 ng/mg cell protein
- inhibition of SOC in vivo [8]: unexpectedly poor inhibitor of SOC
- inhibition of SOC in rat hepatocytes [9]: unexpectedly poor inhibitor of SOC
- inhibition of cholesterol biosynthesis [10]: specifically inhibited cholesterol biosynthesis
- inhibition of cholesterol biosynthesis [11]: specifically inhibited cholesterol biosynthesis
- major product of metabolism [12]: 4,4,10beta-trimethyl-trans-decalin-3beta, 7beta-diol was isolated as the major product of TMD metabolism
- type of inhibition of SOC [1]: nonoompetitive inhibitors of SOC
- effect on the cyclases of higher plants [2]: virtually no effect
- inhibition of squalene oxide cyclase in in vitro microsomal assays [7]: effective inhibitor of squalene oxide cyclase
- pIC50 [7]: 3.37

Compound: C[C@H](CCCC(C)(C)O)[C@H]1CC[C@H]2[C@@H]3CC=C4C[C@@H](O)CC[C@]4(C)[C@H]3CC[C@]12C [25-hydroxy-cholesterol]
- LDL BINDING ([6]; suppressor alone in HDF, 5 ug/ml, no suppressor 88 ± 6): 34 ± 3 ng/mg cell protein

Compound: CC(O)(CCO)CC(=O)O (stereo not drawn) [Mevalonate]
- LDL BINDING ([6]; suppressor alone in HDF, no suppressor 88 ± 6): 19 ± 2 ng/mg cell protein

Compound: CC[C@H](C)C(=O)O[C@H]1C[C@@H](C)C=C2C=C[C@H](C)[C@H](CC[C@@H]3C[C@@H](O)CC(=O)O3)[C@H]21 [Mevinolin]
- up regulation of LDL receptors in HepG2 cells ([6]; culture medium free of sterol supplements (HDF)): equally effective in up regulation of LDL receptors
- LDL BINDING [6, 14]: 3 ± 2 ng/mg cell protein
- LDL BINDING [6, 15]: 38 ± 3 ng/mg cell protein
- LDL BINDING [6, 16]: 35 ± 2 ng/mg cell protein
- LDL BINDING [6, 17]: 213 ± 4 ng/mg cell protein
- defects in glycosylation of proteins in lymphocytes [13]: defects in the glycosylation of proteins in lymphocytes which can persist for ten months after administration

Compound: CCN(CC)CCO[C@H]1CC[C@@]2(C)C(=CC[C@@H]3[C@@H]2CC[C@]2(C)C(=O)CC[C@@H]32)C1 [U18666A]
- 125I-LDL Binding ([6]; 5 ug/ml): 160 ± 4 ng/mg cell protein
- 125I-LDL Internal ([6]; 5 ug/ml): 1093 ± 17 ng/mg cell protein
- 125I-LDL Degradation ([6]; 5 ug/ml): 682 ± 141 ng/mg cell protein
